This is an account of results in patent publication US20250288683A1, “TETRAHYDROISOQUINOLINE HETEROBIFUNCTIONAL BCL-XL DEGRADERS” (Treeline Biosciences, Inc., priority 2022, published 2025).

This test addresses T1, Human BCL-XL protein (N-terminal HiBiT tagged BCL-XL in HT1080 cells) (Homo sapiens, UniProt Q07817).
T1 construct: expressed in transfected cells; host or cells: HT-1080 (ATCC CCL-121), stably transduced with lentivirus pLV-UBC-N-HiBiT-BCL-XL-PGK-puro and selected with puromycin
As to the kind of experiment: HiBiT based degradation assay. As to conditions: HT1080 cells expressing N-terminal HiBiT tagged BCL-XL, normalized with DMSO control. Type of test: cell-based. From the text:
HiBiT Based Degradation Assay
Human BCL-XL protein coding open reading frame fused with N-terminal HiBiT coding sequence was synthesized from Integrated DNA Technologies (IDT). Next, N-HiBiT-BCL-XL sequence was cloned into pLV-UBC-PGK-Puro, a lentivirus plasmid purchased from Vectorbuilder, to generate pLV-UBC-N-HiBiT-BCL-XL-PGK-puro. Lentiviral particles were generated from Lenti-X™ 293T cells (Clontech) by co-transfection of pLV-UBC-N-HiBiT-BCL-XL-PGK-puro plasmids and lentiviral packaging plasmid mix (Cellecta). HT-1080 [HT1080](ATCC CCL-121) cells were infected with the lentivirus, and HT1080 cells stably integrated with the lentiviral vectors were established by incubation with 1 μg/mL puromycin (Thermofisher).
HT1080 cells expressing N-terminal HiBiT tagged BCL-XL were dispensed into a 384-well plate pre-spotted with compounds at varying concentrations. Three thousand cells were seeded into each well in 40 μL of RPMI 1640 media. […] After incubation, luminescence was read on a PHERAstar FSX Plate Reader (BMG). BCL-XL degradation at each indicated concentration was normalized with the DMSO control. The BCL-XL degradation curves were plotted using a four-parameter logistic model. For compounds displaying hook effects, the curve fitting was performed using the bottom point of the hook curves (i.e., the point of Ymin) as the bottom plateau to calculate EC50.
A general note: HiBiT is a short tag that completes a luciferase, so light tracks the accessible tagged protein.

T1 sequence (Q07817 whole entry): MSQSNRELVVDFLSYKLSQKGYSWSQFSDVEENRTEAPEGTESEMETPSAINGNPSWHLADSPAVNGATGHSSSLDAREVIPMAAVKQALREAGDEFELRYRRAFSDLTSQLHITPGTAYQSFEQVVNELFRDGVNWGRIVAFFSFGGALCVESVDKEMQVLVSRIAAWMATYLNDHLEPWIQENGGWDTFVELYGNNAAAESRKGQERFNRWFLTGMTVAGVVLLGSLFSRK

For the molecule `Cc1ncsc1-c1ccc([C@H](C)NC(=O)[C@@H]2C[C@@H](O)CN2C(=O)[C@@H](NC(=O)CCCCCCCCCCCCCCCn2nc(C)c(-c3ccc(N4CCc5cccc(C(=O)Nc6nc7ccccc7s6)c5C4)nc3C(=O)O)c2C)C(C)(C)C)cc1` [Compound 102a, 6-[8-(1,3-Benzothiazol-2-ylcarbamoyl)-3,4-dihydro-1H-isoquinolin-2-yl]-3-[1-[16-[[(1S)-1-[(2S,4R)-4-hydroxy-2-[[(1S)-1-[4-(4-methylthiazol-5-yl)phenyl]ethyl]carbamoyl]pyrrolidine-1-carbonyl]-2,2-dimethyl-propyl]amino]-16-oxo-hexadecyl]-3,5-dimethyl-pyrazol-4-yl]pyridine-2-carboxylic acid], the “Ymin (6 h)” value is given as “A (Ymin < 50%)”.

Turning to `Cc1ncsc1-c1ccc([C@H](C)NC(=O)[C@@H]2C[C@@H](O)CN2C(=O)[C@@H](NC(=O)CCCCCCCn2nc(C)c(-c3ccc(N4CCc5cccc(C(=O)Nc6nc7ccccc7s6)c5C4)nc3C(=O)O)c2C)C(C)(C)C)cc1` [Compound 103a, 6-[8-(1,3-benzothiazol-2-ylcarbamoyl)-3,4-dihydro-1H-isoquinolin-2-yl]-3-[1-[8-[[(1S)-1-[(2S,4R)-4-hydroxy-2-[[(1S)-1-[4-(4-methylthiazol-5-yl)phenyl]ethyl]carbamoyl]pyrrolidine-1-carbonyl]-2,2-dimethyl-propyl]amino]-8-oxo-octyl]-3,5-dimethyl-pyrazol-4-yl]pyridine-2-carboxylic acid], the “Ymin (6 h)” value is “A (Ymin < 50%)”.

Consider `Cc1ncsc1-c1ccc([C@H](C)NC(=O)[C@@H]2C[C@@H](O)CN2C(=O)[C@@H](NC(=O)CCCCCCCCCCCCCn2nc(C)c(-c3ccc(N4CCc5cccc(C(=O)Nc6nc7ccccc7s6)c5C4)nc3C(=O)O)c2C)C(C)(C)C)cc1` [Compound 104a, 6-[8-(1,3-benzothiazol-2-ylcarbamoyl)-3,4-dihydro-1H-isoquinolin-2-yl]-3-[1-[14-[[(1S)-1-[(2S,4R)-4-hydroxy-2-[[(1S)-1-[4-(4-methylthiazol-5-yl)phenyl]ethyl]carbamoyl]pyrrolidine-1-carbonyl]-2,2-dimethyl-propyl]amino]-14-oxo-tetradecyl]-3,5-dimethyl-pyrazol-4-yl]pyridine-2-carboxylic acid], for which the “Ymin (6 h)” value was “B (50% ≤ Ymin < 70%)”.

In the case of `Cc1ncsc1-c1ccc([C@H](C)NC(=O)[C@@H]2C[C@@H](O)CN2C(=O)[C@@H](NC(=O)CCCCCOc2cccc(-c3ccc(N4CCc5cccc(C(=O)Nc6nc7ccccc7s6)c5C4)nc3C(=O)O)c2C)C(C)(C)C)cc1` [Compound 105a, 6-(8-(Benzo[d]thiazol-2-ylcarbamoyl)-3,4-dihydroisoquinolin-2(1H)-yl)-3-(3-((6-(((S)-1-((2S,4R)-4-hydroxy-2-(((S)-1-(4-(4-methylthiazol-5-yl)phenyl)ethyl)carbamoyl)pyrrolidin-1-yl)-3,3-dimethyl-1-oxobutan-2-yl)amino)-6-oxohexyl)oxy)-2-methylphenyl)picolinic acid], the “Ymin (6 h)” value is “A (Ymin < 50%)” and the “Ymin (24 h)” value is given as “A (Ymin < 50%)”.

Take `Cc1ncsc1-c1ccc([C@H](C)NC(=O)[C@@H]2C[C@@H](O)CN2C(=O)[C@@H](NC(=O)CCCCCCOc2cccc(-c3ccc(N4CCc5cccc(C(=O)Nc6nc7ccccc7s6)c5C4)nc3C(=O)O)c2C)C(C)(C)C)cc1` [Compound 106a, 6-(8-(benzo[d]thiazol-2-ylcarbamoyl)-3,4-dihydroisoquinolin-2(1H)-yl)-3-(3-((7-(((S)-1-((2S,4R)-4-hydroxy-2-(((S)-1-(4-(4-methylthiazol-5-yl)phenyl)ethyl)carbamoyl)pyrrolidin-1-yl)-3,3-dimethyl-1-oxobutan-2-yl)amino)-7-oxoheptyl)oxy)-2-methylphenyl)picolinic acid]: the “Ymin (6 h)” value is recorded as “A (Ymin < 50%)” and the “Ymin (24 h)” value is on record as “A (Ymin < 50%)”.
